Test results as given in patent US20260306460A1, “COMPOSITION FOR REMOVING AND INHIBITING SENESCENT CELLS, AND USES THEREOF” (LIFECEUTIX CO., LTD., priority 2023, published 2026).

Experiments:
senescent A549 cells = experiment: Viability of senescent A549 cells (CellTiter-Glo), Example 18, Table 15; conditions: Homo sapiens, A549, read-out: Survival (%)
Protocol: Senescence-induced cancer cells treated with doxorubicin were treated with the test compound at designated concentrations, and cell viability was measured using the CellTiter-Glo Luminescent Cell Viability Assay (Promega).

[1] = tested on: carbon tetrachloride-induced liver fibrosis mice; experiment: Carbon tetrachloride-induced liver fibrosis mice, Example 31, Table 57; type: in vivo, mouse; conditions: CCl4-induced liver fibrosis mice, untreated = 100%
Protocol: (§1) The control group was administered only the solution in the same volume. After the end of drug administration, the method described in each example below was performed. Liver, kidney, skin, knee joint, heart, and femur tissues were collected from mice in which natural aging was induced in the same manner as in Examples 7-2 and 7-6 of WO2023-085787 A1. Lung tissues were collected from mice in which pulmonary fibrosis was induced using the same method as in Example 24-1. Liver tissues were collected from mice in which hepatic fibrosis was induced using the same method as in Example 26, and total RNA was extracted. qRT-PCR was performed and analyzed using the synthesized cDNA. […] The mRNA amounts of p16, MMP3, and IL6 after natural aging was induced were calculated as 100% and compared with the mRNA amounts of p16, MMP3, and IL6 after treatment with the test compound. In addition, an open field test for the analysis of aging-related frailty, agtr1a mRNA analysis for kidney damage and disease evaluation, col1a1 and SDF1 mRNA analysis for skin aging evaluation such as wrinkles/loss of elasticity/hyperpigmentation, col2a1 mRNA analysis for evaluating joint aging such as osteoarthritis, sur2a mRNA analysis for evaluating cardiac aging such as decreased cardiac load resistance, ctsk mRNA analysis for evaluating bone diseases due to aging such as osteoporosis, muscle tissue weight for analyzing sarcopenia, fat tissue weight for analyzing lipoatrophy, and cataract incidence analysis were performed in mice. For cataract incidence analysis, the drug was administered twice a week under the conditions specified above, and biweekly examinations were conducted until death.

senescent cells = experiment: Viability of senescent cells (CellTiter-Glo), Example 17, Table 13; conditions: Homo sapiens, read-out: Survival (%)
Protocol: Cells induced to undergo senescence by doxorubicin treatment were treated with test compound at designated concentrations and measured using the CellTiter-Glo Luminescent Cell Viability Assay (Promega).

naturally aged mice = experiment: Anti-aging evaluation in naturally aged mice, Example 31, Table 55; type: in vivo, mouse; conditions: for Femur Ctsk mRNA / Kidney Agtr1a mRNA / Liver IL6 mRNA / Liver MMP3 mRNA / Liver p16 mRNA / Open Field Test Time in Center: untreated = 100%; for Heart Sur2a mRNA / Joint Col2a1 mRNA / Skin Col1a1 mRNA / Skin SDF1 mRNA: untreated = 1.0; for Muscle Mass: untreated 0.64 g; for Fat Mass: untreated 0.82 g; for Cataract incidence: untreated 83%;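 for all read-outs here: Vehicle-dosed control mice received solution alone at matching volume, values compare test-compound-treated aged mice against that control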
Protocol: After the end of drug administration, the method described in each example below was performed. […] The mRNA amounts of p16, MMP3, and IL6 after natural aging was induced were calculated as 100% and compared with the mRNA amounts of p16, MMP3, and IL6 after treatment with the test compound. In addition, an open field test for the analysis of aging-related frailty, agtr1a mRNA analysis for kidney damage and disease evaluation, col1a1 and SDF1 mRNA analysis for skin aging evaluation such as wrinkles/loss of elasticity/hyperpigmentation, col2a1 mRNA analysis for evaluating joint aging such as osteoarthritis, sur2a mRNA analysis for evaluating cardiac aging such as decreased cardiac load resistance, ctsk mRNA analysis for evaluating bone diseases due to aging such as osteoporosis, muscle tissue weight for analyzing sarcopenia, fat tissue weight for analyzing lipoatrophy, and cataract incidence analysis were performed in mice. For cataract incidence analysis, the drug was administered twice a week under the conditions specified above, and biweekly examinations were conducted until death.

[2] = tested on: bleomycin-induced pulmonary fibrosis mice; experiment: Bleomycin-induced pulmonary fibrosis mice, Example 31, Table 56; type: in vivo, mouse; conditions: untreated = 100%
Protocol: as §1
The table below quantitatively presents the evaluation results for each item in mice with bleomycin-induced pulmonary fibrosis, untreated and treated with the test compound.

Row | Compound | viability at 1.1 µM (senescent A549 cells) [%] | viability at 10 µM (senescent A549 cells) [%] | Liver p16 mRNA [1] | Col1a1 mRNA [1] | viability at 1.1 µM (senescent cells) [%] | viability at 10 µM (senescent cells) [%] | Femur Ctsk mRNA (naturally aged mice) [%] | Heart Sur2a mRNA (naturally aged mice) [fold] | Joint Col2a1 mRNA (naturally aged mice) [fold] | Kidney Agtr1a mRNA (naturally aged mice) [%] | Liver IL6 mRNA (naturally aged mice) [%] | Liver MMP3 mRNA (naturally aged mice) [%] | Liver p16 mRNA (naturally aged mice) [%] | Open Field Test Time in Center (naturally aged mice) [%] | Skin Col1a1 mRNA (naturally aged mice) [Fold] | Skin SDF1 mRNA (naturally aged mice) [fold] | Muscle Mass (naturally aged mice) [g] | Fat Mass (naturally aged mice) [g] | Cataract incidence (naturally aged mice) [%] | Lung p16 mRNA [2] | other results
1 | CC1(C)[C@H]2COc3ccc4ccccc4c3[C@H]2N=C2SC(c3ccccc3)=C(c3ccccc3)N21 [LX-5201] | 102 | 61.5 | 64 (±8.4) % | 59 (±8.7) % | 102 | 88.3 | 53 | 1.5 | 1.9 | 58 | 43 | 67 | 58 | 168 | 2.1 | 2.3 | 0.77 | 0.97 | 49 | 75 (±4.2) % | viability at 30 µM (senescent A549 cells): 3.8%; viability at 30 µM (senescent cells): 37.7%; Col1a1 mRNA [2]: 74 (±6.3) %
2 | CN[C@H](CC(C)C)C(=O)N[C@H]1C(=O)N[C@@H](CC(N)=O)C(=O)N[C@H]2C(=O)N[C@H]3C(=O)N[C@H](C(=O)N[C@H](C(=O)O)c4cc(O)cc(O)c4-c4cc3ccc4O)[C@H](O)c3ccc(c(Cl)c3)Oc3cc2cc(c3O[C@@H]2O[C@H](CO)[C@@H](O)[C@H](O)[C@H]2O[C@H]2C[C@](C)(N)[C@H](O)[C@H](C)O2)Oc2ccc(cc2Cl)[C@H]1O [LX-5424, Vancomycin] | 98.9 | 74.3 | 79 (±5.6) % | 51 (±4.7) % | 106 | 62.5 | 70 | 2.3 | 1.5 | 68 | 45 | 59 | 72 | 191 | 1.6 | 1.7 | 0.67 | 0.84 | 76 | 70 (±3.5) % | viability at 30 µM (senescent A549 cells): 21.8%; viability at 30 µM (senescent cells): 10.5%; Col1a1 mRNA [2]: 73 (±2.7) %
3 | CCN(CC1C(=O)C2CCN1CC2)C(=O)C(Cl)(Cl)Cl (centres unmarked) [LX-5702] | 91.8 | 38.1 | 72 (±3.9) % | 65 (±7.2) % | 97.5 | 5.2 | 61 | 2.5 | 2.4 | 49 | 49 | 55 | 47 | 211 | 1.8 | 2.0 | 0.70 | 0.85 | 66 | 61 (±6.2) % | viability at 30 µM (senescent A549 cells): 3.9%; Col1a1 mRNA [2]: 68 (±7.5) %
4 | CC12CCN(CC1)C(CNC(=O)C(F)(F)F)C2=O (centres unmarked) [LX-5706] | 88.5 | 31 | 69 (±6.9) % | 70 (±4.8) % | 96.5 | 12.7 | 68 | 2 | 1.9 | 70 | 71 | 60 | 64 | 171 | 1.6 | 1.4 | 0.69 | 0.85 | 74 | 76 (±6.1) % | viability at 30 µM (senescent A549 cells): 0.3%; Col1a1 mRNA [2]: 79 (±5.2) %
5 | CC12CCN(CC1)C(CN(C1CC1)S(C)(=O)=O)C2=O (centres unmarked) [LX-5707] | 81 | 37.3 | 64 (±8.3) % | 72 (±9.6) % | 103 | 27.3 | 64 | 2.3 | 2.0 | 65 | 61 | 63 | 59 | 199 | 1.7 | 1.6 | 0.70 | 0.90 | 70 | 72 (±8.9) % | viability at 30 µM (senescent A549 cells): 4.3%; Col1a1 mRNA [2]: 69 (±7.1) %
6 | O=C1C2CCN(CC2)C1(CO)COCc1ccccc1 (centres unmarked) [LX-5711] | 89 | 52.5 | 63 (±4.3) % | 74 (±3.0) % | 95.1 | 63.7 | 62 | 2.3 | 2.3 | 63 | 48 | 61 | 65 | 191 | 1.5 | 1.8 | 0.68 | 0.93 | 72 | 70 (±3.8) % | viability at 30 µM (senescent A549 cells): 11.9%; viability at 30 µM (senescent cells): 20.6%; Col1a1 mRNA [2]: 71 (±4.0) %
7 | [2H]C([2H])([2H])OCC1(CO)C(=O)C2CCN1CC2 (centres unmarked) [LX-5721] | 106 | 17.8 | 52 (±9.6) % | 80 (±9.3) % | 98.5 | 45.5 | 63 | 2.7 | 2.0 | 59 | 54 | 72 | 41 | 218 | 1.7 | 1.7 | 0.68 | 0.97 | 71 | 65 (±5.6) % | viability at 30 µM (senescent cells): 13.4%; Col1a1 mRNA [2]: 78 (±4.7) %
8 | [2H]C12CCN(CC1)C(CO)(COC)C2=O (centres unmarked) [LX-5722] | 99 | 4.1 | 69 (±6.2) % | 76 (±6.4) % | 91.5 | 34.1 | 59 | 2.4 | 2.1 | 52 | 73 | 63 | 46 | 222 | 1.8 | 1.6 | 0.70 | 1.03 | 69 | 73 (±5.5) % | viability at 30 µM (senescent cells): 1.8%; Col1a1 mRNA [2]: 78 (±7.2) %
